Here are results for 1 compound from patent US9662329B2, “Use of survivin antagonists in polyomavirus-related disease” (University of Pittsburgh—Of the Commonwealth System of …, priority 2012, dated 2017).

Test [1] deals with MCV-positive MCC cell lines (MKL-1, MKL-2, MS-1 and WaGa). Briefly: Cell-Titer Glo growth inhibition by YM155. It counts as cell-based, human. The settings on record: 48 h. From the text:
(§1) Seven Merkel cell carcinoma cell lines: MKL-1, MKL-2, MS-1, UISO, MCC13, MCC26 and WaGa (kind gift of Jurgen Becker (Houben et al., Merkel cell polyomavirus-infected Merkel cell carcinoma cells require expression of viral T antigens. J Virol 84, 7064 (July, 2010); Ronan et al., Merkel cell carcinoma: in vitro and in vivo characteristics of a new cell line. J Am Acad Dermatol 29, 715 (November, 1993); Rosen et al., Establishment and characterization of a neuroendocrine skin carcinoma cell line. Lab Invest 56, 302 (March, 1987)); NCI-H69 small cell lung cancer cell line (ATCC); 293 human embryonic kidney cells (ATCC); U2OS osteosarcoma cell line (kind gift of Ole Gjoerup); BJhTERT immortalized foreskin fibroblast cell line (kind gift of Ole Gjoerup); and BJ primary foreskin fibroblasts (ATCC) were used to screen and evaluate the small molecules examined in this study (Houben et al., J Virol 84, 7064 (July, 2010); Ronan et al., J Am Acad Dermatol 29, 715 (November, 1993); Rosen et al., Lab Invest 56, 302 (March, 1987)). […]
(§2) Serial drug dilutions from 10^−4 M to 10^−9 M were used on MCC and non-MCC cell lines. […] Cell viability was then measured using Cell Titer Glo (Promega) kit following manufacturer's instructions as described previously. […] EC50 doses for the drugs were calculated using a four parameter logistic equation (GraphPad Prism).

The subject of test [2] is survivin protein expression in MKL-1 cells. Briefly: Immunoblotting for survivin. In kind it is cell-based, human. Particulars: after 12 h treatment. The method, then:
Cells were lysed in buffer (RIPA or 10 mM Tris-HCl pH 8.0, 0.6% SDS) containing protease inhibitor cocktail (Roche). Lysates were electrophoresed in 10% SDS-PAGE, transferred to nitrocellulose membrane (Amersham) and reacted with specific antibodies (CM2B4, (1:5000 dilution) (Shuda et al., Human Merkel cell polyomavirus infection I. MCV T antigen expression in Merkel cell carcinoma, lymphoid tissues and lymphoid tumors. Int J Cancer 125, 1243 (Sep. 15, 2009)), cleaved PARP, cleaved caspase3, survivin, XIAP, p53, Bcl-2, Bax (1:1000 dilution, Cell Signalling Technologies), E2F1, cyclin E (1:1000 dilution, Santa Cruz Biotechnology), LC3 (1:1000 dilution, Novus Biologicals) or α-tubulin (1:5000 dilution, Sigma)) overnight at 4° C., followed by anti-mouse (1:5000 dilution, Amersham) or anti-rabbit IgG-HRP conjugates (1:3000 dilution, Cell signaling) for 1 hour at room temperature. Peroxidase activity was detected using Western Lightning plus-ECL reagent (Perkin Elmer). For quantitative immunoblotting, Odyssey Infrared Imaging system (LICOR) was used with IRDye 800-conjugated secondary antibodies (1:5000 dilution, Rockland Immuno chemicals).
(In general: A western blot detects proteins with antibodies after separation by electrophoresis.)

For test [3], the system named is MS-1 (MCV-positive) and UISO (MCV-negative) cell xenografts. Briefly: MS-1 and UISO xenograft drug treatment. It counts as in vivo, NSG mice. Particulars: end of three week treatment period; MS-1 and UISO xenografts. The method, then: MCC cells were checked for viability >90% by trypan blue staining, resuspended in PBS (2×10^7 cells in 100 μl) and inoculated subcutaneously into the right flank of mice.
All treatments were delivered for three consecutive weeks. […] YM-155 (2 mg/kg) was given intraperitoneally on five consecutive days, followed by a two-day treatment free interval.

For another test, the system named is survivin. Description: qRT-PCR for survivin in xenograft tumor tissues. It counts as in vivo, mice. The settings on record: 2 mg/kg vs saline. A general note: Real-time PCR tracks product formation cycle by cycle.
For test [4], the system named is MKL-1 cells. Description: Cell cycle analysis (PI and BrdU staining). It counts as cell-based, human. Particulars: 12 h, YM155 100 nM, camptothecin 1 μM. Here is the method: MKL-1 cells were treated with Accutase (Millipore) to break clumps and then resuspended in fresh medium containing drug and treated for 12 hours. Three hours before harvest 10 μM Bromodeoxyuridine (BrdU) was added. Cells were then harvested and fixed in chilled 70% ethanol and left overnight. The next day cells were washed, resuspended in 200 μl of 2M HCl/Triton X (1%) and incubated for 30 mins at room temperature. Cells were then centrifuged at 2000 rpm for 10 mins and neutralized in 200 μl of 0.1M sodium tetraborate, pH 8.5 solution. Cells were then washed, suspended in 20 μl of PBS containing 0.5% tween20, 1% donkey serum and 2ul of anti-BrdU antibody (1:10 diution, BD Biosciences) and incubated overnight at 4° C. Cells were then washed and incubated with secondary antibody-anti mouse Alexa488 (1:1000) for 1 hour at room temperature. Cells were finally washed, suspended in PBS containing 100 μg/ml of RNase A, 50 μg/ml of PI (propidium iodide) and 0.05% Triton X and incubated for 30 mins at 37° C. in the dark. The cells were then subjected to FACS using the accuri C6 flow cytometer (UPCI shared resources).
For orientation: Uptake of a labelled nucleoside into DNA is a usual measure of proliferation.

Test [5] has as its system MKL-1 cells. Description: Cell death evaluation by CFDA and PI staining. In kind it is cell-based, human. The settings on record: 100 nM. The method, then:
Upon harvesting cells are resuspended in 2 ml of PBS containing 4 μg/ml PI (propidium iodide, Sigma) and 10 μM Carboxy fluorescin diacetate (CFDA, Invitrogen) at room temperature for 10 mins. Cells were then rinsed in 1× PBS and then examined under the microscope. Quantitation was done using ImageJ software.

Test [6] deals with MKL-1 cells. Briefly: Trypan blue dye exclusion assay. The settings on record: for viability at 0.1 µM: Homo sapiens. The method, then: Cells were equally seeded and treated with YM155 for 48 hours. To count blue stained dead cells, cells were treated with Accutase (Millipore), collected, resuspended in PBS, mixed with equal volume of Trypan blue (Lonza, 0.4%) and counted using a hemocytometer under the microscope. The counts were done in triplicate and the experiment was repeated three times.
MKL-1 cells were co-stained with CFDA (green, live) and PI (red, dead). In FIG. 4D, column graphs represent mean and range quantitations (using ImageJ) of % CFDA positive and % PI positive cells.

Test [7] has as its system MCV-negative UISO and MCC26. Description: Cell-Titer Glo growth curves for YM155. In kind it is cell-based, human. Particulars: 48 h.
Text: as §1, §2

Test [8] relates to MCV-negative MCC13, BJ and BJhTERT cells. Briefly: Cell-Titer Glo growth curves for YM155. In kind it is cell-based, human. The settings on record: 48 h.
Text: as §1, §2

Where two headings read alike, the source gives them in different places.

`COCCn1c2c([n+](Cc3cnccn3)c1C)C(=O)c1ccccc1C2=O.[Br-]` [YM155, 1-(2-methoxyethyl)-2-methyl-4,9-dioxo-3-(pyrazin-2-ylmethyl)-4,9-dihydro-1H-naphtho[2,3-d]imidazol-3-ium bromide]: the “sensitivity to YM155, dose-dependent growth curves” value in [1] (MKL-1, MKL-2, MS-1 and WaGa) is “sensitive”; in test [7], “intermediate sensitivity”; in [8], “relative resistance”. Further, the concentration giving a half-maximal response (EC50) in test [1] (Homo sapiens, MKL-1, range over MCV-positive MCC cell lines, Cell-Titer Glo, read-out: EC50, inhibiting MCV-positive MCC cell growth in vitro) lay in the range of 1.34 to 12.2 nM. In addition, the survivin protein expression result in [2] is on record as “dose-dependent decrease”. Also, in test [3], the “final tumor volumes, % (median) of saline-treated control mice” value is reported as 43-55%. Moreover, the “survivin levels in xenograft tumors (qRT-PCR)” value in the test on survivin is “Lower survivin levels”. In addition, the BrdU incorporation result with MKL-1 cells [4] was “ablates BrdU incorporation in all phases of the cell cycle”. Also, the “time to initiation of programmed cell death (PI positive, CFDA negative)” value in the test with MKL-1 cells [5] was in the range of 12 to 24 h. Also, in the test on MKL-1 cells [6] (48 h, MKL-1), the “cell killing, trypan blue vital dye exclusion” value is listed as “dose-dependent cell killing”. Besides, the viability at 0.1 µM in the test on MKL-1 cells [6] (MKL-1, read-out: cells remaining viable at 48 hours, 100 nM for 3 hours, followed by wash out) stood at 51%; in the test with MKL-1 cells [6] (MKL-1, read-out: cells remaining viable at 48 hours, 100 nM for 6 hours, followed by wash out) it was 3%; in the test with MKL-1 cells [6] (MKL-1, read-out: cells remaining viable at 48 hours, 100 nM for 12 hours, followed by wash out), 1.8%.

For orientation: EC50 means the concentration at which the effect is half-maximal.
